Laboratory results from patent US11759480B2, “Compositions and methods for CAR T cell therapy” (ENDOCYTE, INC., priority 2017, dated 2023).

Legend:
MDA-MB-231 tumor = assay: Enumeration and characterization of FITC CAR T cells in blood after rescue (Example 33); type: in vivo, NSG mice
Experimental: Plasma was removed from predetermined volumes of whole EDTA treated blood with a 10-minute 4° C. spin at 3000 g and the resulting cell pellets were incubated with a 10-fold volume of room temperature 1×RBC lysis solution [prepared from 10× stock; Biolegend, catalog #420301] for 5 minutes, centrifuged at 400 g for 5 min, and the cell pellet was washed in a 10-fold volume of ice cold phosphate buffered saline pH=7.4 and filtered with a 40 μm nylon filter and then pelleted again. The leukocyte pellets were then resuspended in flow cytometry staining solution [1% bovine serum albumin, 50 mg/mL human IgG (Equitech Bio, cat #SLH56-0001), 0.9% sodium azide in a phosphate buffered saline, pH=7.4] supplemented with both anti-mouse FcγIII/II receptor (CD16/CD32) block [clone 2.4G2; BD Bioscience, catalog #553142 at 1:100 (v/v) dilution] and anti-human Fc Block [BD Biosciences, catalog #564220 at 1:50 (v/v) dilution]. Leukocyte surface marker staining was performed with the addition of the following fluorochrome conjugated monoclonal antibodies added to each sample for 20 minutes on ice in the dark: anti-human CD45-APCeF780 [clone HI30, eBioscience #47-0459-42 at 1:20 (v/v) dilution], anti-human CD137-BV650 [clone 4B4-1, BD Bioscience #564092 at 1:20 (v/v) dilution], anti-human CD8α-PECy7 [clone RPA-T8, BD Bioscience, catalog #557746 at 1:20 (v/v) dilution], anti-human CD4-Percpe710 [clone SK3, eBioscience catalog #46-0047-42 at 1:20 (v/v) dilution]. After leukocyte staining, cells were washed with PBS and resuspended in cold PBS containing 53,000 CountBright™ beads [Invitrogen catalog #C36950] and transferred to flow cytometry collection tubes. Flow cytometry data was collected on the Gallios flow cytometer (Beckman Coulter, Brea, Calif.), where a minimum of 15,000 CountBright™ bead events were collected in an attempt to collect enough leukocyte events for an accurate count of infused CART cells in each mouse blood sample. Determination of the concentration of CAR T cells in each blood sample was calculated according to Invitrogen's instructions. Briefly, CAR T cells were identified as human CD45+ GFP+ events and were easily distinguished and counted using the Kaluza™ flow cytometry software. CountBright™ beads were uniformly labeled with a fluorochrome not utilized in the antibody panel used to identify the CAR T cells and were easily distinguished from the leukocytes and bead events were counted. Because 53,000 CountBright™ beads were added to each sample tube, we calculated the ratio of 53,000 total beads to bead events collected per sample and set the bead ratio equivalent to the unknown number of CAR T cells in each sample divided by the known number of CAR T cell events collected. Solving for the unknown gave us the number of CAR T cells isolated from each blood sample of known volumes. The number of CAR T cells in the circulation of each infused mouse was then represented on the graphs as the total number of CART cells per 50 μL of whole blood analyzed. Statistical significance was determined by utilizing an unpaired, two-tailed, students t-test with significance set at p<0.05 for comparisons between each of the three groups of mice.
The experimental timeline is represented in FIG. 53A. On day 0, GFP+FITC-CAR T cells [clone 4M5.3] were removed from cryopreservation, thawed and then infused intravenously into MDA-MB-231 tumor bearing NSG mice at 10 million per mouse [tumors ˜250 mm^3]. […]

s.c. MDA-MB-231 tumors = assay: EC17 dose escalation cycles versus weekly dosing (Example 45); type: in vivo, mice
Experimental: The effect of EC17 dose de-escalation was investigated on the anti-tumor activity and the toxicity (body weight changes) of CAR-T therapy. 8.5 million frozen anti-FITC CAR-T cells were thawed and i.v. injected into mice bearing s.c. MDA-MB-231 tumors (100-200 mm3). 500 nmol/kg EC17 was administered 2 days after CAR-T injection and caused sCRS in mice. […] The first group was dosed with 500 nmol/kg EC17 weekly (SIW), whereas the second group was dosed with two EC17 escalation cycles. Each cycle lasted for 2 weeks (14 days). The dosing schedule in each cycle included 5 nmol/kg EC17 at day 1, 50 nmol/kg EC17 at day 3, 500 nmol/kg EC17 on day 5. After 9 days break, the second escalation cycle started. Tumor sizes and body weights were monitored 2-3 times per week.

Structure (SMILES)	CAR T cells in circulation (MDA-MB-231 tumor; 60 μmol/kg, 27 hours after rescue)	earliest increase of circulating CAR T cells (MDA-MB-231 tumor; 0.06-6 μmol/kg)	CAR T cell extravasation into the blood (MDA-MB-231 tumor; 24 hours post rescue, 0.06-6 μmol/kg)	4-1BB (CD137) on circulating CAR T cells (MDA-MB-231 tumor; CAR T + EC17 + sodium fluorescein 60 μmol/kg)	rescue from sCRS (s.c. MDA-MB-231 tumors; 6 umol/kg)	CAR T cells in circulation (MDA-MB-231 tumor; one dose EC17 500 nmol/kg)	body weight loss of escalation group (s.c. MDA-MB-231 tumors; cycles of 5, 50, 500 nmol/kg at day 1, 3, 5)
O=C([O-])c1ccccc1-c1c2ccc(=O)cc-2oc2cc([O-])ccc12.[Na+].[Na+] [sodium fluorescein]	CAR T cells reappear in the circulation	3 h	increased in a sodium fluorescein dose-dependent manner	express significant amounts of 4-1BB	successfully rescued	–	–
Nc1nc2ncc(CNc3ccc(C(=O)NC(CCC(=O)NCCNC(=S)Nc4ccc(-c5c6ccc(=O)cc-6oc6cc(O)ccc56)c(C(=O)O)c4)C(=O)O)cc3)nc2c(=O)[nH]1 (stereo not shown) [EC17, FITC-Folate]	–	–	–	–	–	very few CAR T cells are detected in the circulation	much less than that of the EC17 SIW group
